Key:
[1] = tested on: human spermatozoa; assay: Sperm motility (immobilizing effect) assay in selected human spermatozoa (swim up); assay type: cell-based
Description: The spermicidal effect of the wild-type peptide and the constructed analog was assayed by assessing the sperm motility in human spermatozoa. For this, 15 mL of HTF-0.1% BSA medium (0.02 g BSA in 20 mL HTF) and 3 mL of HTF-1% BSA medium (0.04 g BSA in 4 mL HTF) were placed in an assay tube and incubated at 37° C. Subsequently, a sample of 2.6 mL of human semen was incubated during 25 minutes until liquefaction. Once liquefied, the sample was divided into 3 15-mL conical tubes with 2 mL of warm HTF-0.1% BSA in each tube. 860 μL of liquefied semen were vertically added to the bottom of each tube, gently pipetting to homogenize the mixture avoiding the formation of bubbles. Large clots were removed. Subsequently, the sample was centrifuged for 8 minutes at 1,800 rpm and the supernatant was discarded by touching only the surface of the medium with the pipette tip just on the tube walls and pipetting out the liquid. […] Then, spermatozoa were counted, reaching values around 10 million of selected spermatozoa per mL (10×10^6/mL). Different concentrations of the total venom and the different venom fractions obtained in the chromatographic purification, as well as the constructed analog peptide, were applied to samples of the spermatozoid previously selected and counted and were incubated in HTF medium for 45 minutes at 37° C. […]

[2] = tested on: human spermatozoa; assay: Hamster oocyte penetration assay (Yanagimachi et al. 1976), fertilizing capacity of human spermatozoa; assay type: cell-based; conditions: agent at its IC50 from the sperm motility curve; n=15 oocytes per group; versus control
Description: The decrease of the fertilizing capacity of human spermatozoa was assayed using penetration assays in hamster oocytes according to the protocol initially described by Yanagimachi et al. (1976). Briefly, golden hamster oocytes were collected; their […] was removed, and oocytes were subsequently incubated with previously capacitated human spermatozoa at a concentration of 10^7 spermatozoa/ml. The incubation was prolonged for 3-6 hours. […] The oocytes were observed using phase contrast microscopy and were only considered to have been penetrated by spermatozoa when they contained a head in decondensation stage or a male pronucleus inside their cytoplasm.

## 20-amino acid linear analog of the venom peptide, cysteine 43 replaced by alanine; SLAKTNCFTTEYFQHCVKDL [Ac-[Ala^43]-ATX41-60-NH2]
[1]; maximal doses (FIG. 2)
  spermatozoids affected at maximal doses: 100%
[1]; selected human spermatozoa (swim up), incubated 45 minutes in HTF medium, 37° C.
  IC50 of the immobilizing effect (spermatozoa with no progressive linear movement): 39.81 µg/mL
[2]
  decrease in the fertilizing capacity of spermatozoa: 82±0.3%

Source: patent US8980842B2, “Contraceptive peptides derived from the venom of the spider Latrodectus mirabilis, nucleotide sequences to transform a microorganism to produce said peptides; methods to obtain the peptides; pharmaceutical compositions containing thereof and use thereof” (Universidad de la Frontera, priority 2010, dated 2015)
